Here are results for seven molecules from patent publication US12351571B2, “Substituted quinoxaline compounds as inhibitors of FGFR tyrosine kinases” (ARRAY BIOPHARMA INC., priority 2018, dated 2025).

Molecules are shown by their SMILES.

Assay [1] has as its target FGFR1 (Homo sapiens (Human), UniProt P11362). Description: LC/MS FGFR1 kobs assay (covalent modification). The assay is classed as biochemical. Particulars: 500 nM FGFR1, 3 μM compound. As for the experimental part: (§1) The LC/MS FGFR1 and FGFR3 kobs assays were conducted as follows. 500 nM FGFR1 (Array BioPharma construct p1702; SEQ ID NO: 1, amino acids 458-765) or FGFR3 (Array BioPharma construct p1700; SEQ ID NO: 5, amino acids 449-759) were incubated with 3 μM compound in 25 mM HEPES (4-(2-hydroxyethyl)-1-piperazineethanesulfonic acid), pH 7.4, 5 mM MgCl2, 150 mM NaCl, 0.5 mM TCEP (tris(2-carboxyethyl) phosphine), and 2% DMSO in a total volume of 20 μL. At each time point, the reaction was quenched with 20 μL of 0.4% formic acid. The extent of protein modification by each compound was determined by LC/MS on an Agilent Technologies 6520 Q-TOF LC/MS. Protein signals were then automatically deconvoluted using Agilent Masshunter software. Deconvoluted mass signals were exported to Tibco Spotfire data analysis program for further processing and normalization.
(§2) Data analysis included five steps. First, the signals for the “DMSO Controls” were analyzed to determine the percent of signal associated with unmodified FGFR1 or FGFR3 at each time point. Next, the percent of the signal associated with the covalent modification was determined. Third, the average nonmodified “DMSO Control” signal was used to normalize the modified protein signals at each time point. The percent of unmodified protein was fit to an exponential decay model where A0 is the Percent Unmodified at the start of the reaction, and kobs is the observed rate constant over the time period.

Assay [2] addresses T1, FGFR3 (Homo sapiens (Human), UniProt P22607). The assay is described as follows: LC/MS FGFR3 kobs assay (covalent modification). Particulars: 500 nM FGFR3, 3 μM compound. Type of assay: biochemical. As for the experimental part: as §1, §2
Target sequence in this assay (P22607 449-759): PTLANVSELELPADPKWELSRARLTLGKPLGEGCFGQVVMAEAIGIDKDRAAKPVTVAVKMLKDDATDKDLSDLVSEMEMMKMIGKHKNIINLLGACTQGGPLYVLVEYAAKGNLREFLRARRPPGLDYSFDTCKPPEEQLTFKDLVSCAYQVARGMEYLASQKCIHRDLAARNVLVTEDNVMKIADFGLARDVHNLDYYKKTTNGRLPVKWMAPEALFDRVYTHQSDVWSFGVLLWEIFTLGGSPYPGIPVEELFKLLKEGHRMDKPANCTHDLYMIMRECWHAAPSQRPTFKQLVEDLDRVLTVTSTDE
Assay [3] concerns the target phosphorylated FGFR3 (Homo sapiens (Human), UniProt P22607). The assay is described as follows: FGFR Enzyme Binding Assay (HTRF tracer displacement), FGFR3. Particulars: 5 nM phosphorylated FGFR3, 60 minute incubation at 22° C.; read-out: FGFR3 Enz Binding IC50. As for the experimental part: The potency of compounds inhibiting human isoforms of FGFR kinase was determined using Life Technologies' Homogeneous Time Resolved Fluorescence (HTRF)-based binding assay technology. An incubation was conducted with either 5 nM dephosphorylated FGFR1 (Array Biopharma, p1702; SEQ ID NO: 1, amino acids 458 to 765, dephosphorylated by co-expression with PTP1b (protein tyrosine phosphatase 1B)), 5 nM dephosphorylated FGFR2 (Life Technologies, Cat. No. PV4106 that had been dephosphorylated with Lambda protein phosphatase (New England Biolabs, cat #P0753)) or 5 nM phosphorylated FGFR3 (Array Biopharma, p1836; SEQ ID NO: 5, amino acids 449 to 759), 50 nM Kinase Tracer 236 (Life Technologies Cat. No. PR9078A), 2 nM Biotin-anti-6HIS (Life Technologies Cat. No. PV6090) and 2 nM Europium-Streptavidin (Life Technologies Cat. No. PV6025) along with test compound in a buffer consisting of 50 mM HEPES ((4-(2-hydroxyethyl)-1-piperazineethanesulfonic acid, pH 7.5), 5 mM MgCl2, 0.005% Triton X-100, 1 mM DTT, 1 mM NaVO4 and 2% DMSO in a final volume of 12 μL Compounds were typically prepared as a 3-fold or 4-fold serial dilution in DMSO and added to the assay to give the appropriate final concentration. After a 60 minute incubation at 22° C., the extent of tracer displacement was determined using a PerkinElmer EnVision multimode plate reader via HTRF dual wavelength detection, and the percent of control (POC) was calculated using a ratiometric emission factor. One hundred POC was determined using no test compound, and 0 POC was determined in the presence of 1 μM of an appropriate control inhibitor. A 4-parameter logistic curve was fit to the POC values as a function of the concentration of compound, and the IC50 value was the point where the best-fit curve crossed 50 POC.
(TR-FRET usually uses a lanthanide donor and a delayed reading to cut background.)

The target of assay [4] is human wild type FGFR1 (Homo sapiens (Human), UniProt P11362). Description: FGFR1 pERK Cell Assay. Type of assay: cell-based. To be noted: HEK-293 cells, 1 hour compound, 100 ng/ml human FGF-acidic; maximum concentration 5 μM. Here is the method: HEK-293 cells transfected with doxycycline(dox)-inducible human wild type FGFR1 (SEQ ID NO: 1) were plated in a collagen or poly-D-lysine coated 96 well flat bottom plates at 4×10^5 cells/well in complete Dulbecco's Modified Eagle Medium (DMEM) containing 10% FBS and 1 μg/ml doxycycline and allowed to attach for 24 h at 37° C., 5% CO2. Cells were treated with compound using 1:3 serial dilutions with a maximum final concentration of 5 μM. Compound was incubated on cells for 1 hour at 37° C., 5% CO2. Cells were then stimulated with a final concentration of 100 ng/ml human FGF-acidic (R&D Systems Cat number 232-FA/CF) for 5 minutes at 37° C., 5% CO2. Medium was removed, and cells were lysed with lysis buffer containing phosphatase and protease inhibitors. Phospho ERK1/2 was measured using the Meso Scale Discovery sandwich assay (Meso Scale Discovery cat. no. K151DWD). The assay captures phospho ERK1/2 and detects with a sulfo-tagged total ERK1/2 antibody. The chemiluminescent signal was read on the Sector Imager Plate reader. 100 POC was determined using no test compound and 0 POC was determined using a control compound. The POC values were fit to a 4-parameter logistic curve as a function of the concentration of the compound, and the IC50 value is the point where the curve crosses 50 POC.
human wild type FGFR1, sequence (P11362 22-822): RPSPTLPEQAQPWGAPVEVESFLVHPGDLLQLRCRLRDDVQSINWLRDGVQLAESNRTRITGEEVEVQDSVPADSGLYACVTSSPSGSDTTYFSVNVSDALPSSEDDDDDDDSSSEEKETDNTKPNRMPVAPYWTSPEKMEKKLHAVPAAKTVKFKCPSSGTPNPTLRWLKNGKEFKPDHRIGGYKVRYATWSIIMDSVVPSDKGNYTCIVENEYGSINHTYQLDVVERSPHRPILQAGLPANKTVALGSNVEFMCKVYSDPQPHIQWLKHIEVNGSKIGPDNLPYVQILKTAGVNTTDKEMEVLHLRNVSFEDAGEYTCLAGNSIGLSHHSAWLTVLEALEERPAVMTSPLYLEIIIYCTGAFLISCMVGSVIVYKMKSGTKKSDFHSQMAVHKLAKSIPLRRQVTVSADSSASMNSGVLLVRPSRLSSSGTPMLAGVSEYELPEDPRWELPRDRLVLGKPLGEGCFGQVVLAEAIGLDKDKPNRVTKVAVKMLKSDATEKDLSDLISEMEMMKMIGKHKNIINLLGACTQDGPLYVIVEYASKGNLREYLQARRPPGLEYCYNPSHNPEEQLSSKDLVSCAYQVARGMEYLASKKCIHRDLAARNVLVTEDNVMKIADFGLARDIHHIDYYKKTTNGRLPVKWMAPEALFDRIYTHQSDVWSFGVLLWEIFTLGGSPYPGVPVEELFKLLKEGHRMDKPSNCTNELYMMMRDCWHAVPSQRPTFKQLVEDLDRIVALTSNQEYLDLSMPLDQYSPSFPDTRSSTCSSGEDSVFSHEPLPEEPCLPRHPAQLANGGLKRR

The target in assay [5] is T1, FGFR3. The assay is described as follows: FGFR Enzyme Activity Assay (LanthaScreen TR-FRET), FGFR3. The assay is classed as biochemical. To be noted: 25 μM ATP, 10 minute incubation; read-out: FGFR3 Enz FRET IC50. As for the experimental part: FGFR3 kinase activity was measured by the Invitrogen LanthaScreen™ Assay technology which directly measures the amount of substrate phosphorylation by TR-FRET using a flourescently-labeled peptide and Europium-labeled antibody. Briefly, 750 pM N-terminal GST-HIS6 fusion protein with a 3C cleavage site recombinant human FGFR3 (amino acids R397-T806) (ProQinase Cat. No. 1068-0000-1) was incubated with 100 nM Alexa Fluor® 647-Poly-GT Peptide Substrate (Life Technologies Cat. No. PV5836) and 25 μM ATP along with test compound in a buffer consisting of 250 mM HEPES, 25 mM MgCl2, 0.05% TritonX-100, pH 7.5, and 2% DMSO. Compounds were typically prepared in a threefold serial dilution in DMSO and added to the assay to give the appropriate final concentration. After a 10 minute incubation at 22° C., an equal volume of 2 nM LanthaScreen® Eu-PY20 Antibody (Life Technologies Cat. No. PV5691) and 10 mM EDTA were added to quench the kinase reaction and start the detection reaction. After an additional 60 minute incubation at 22° C., the reaction was measured using a PerkinElmer EnVision multimode plate reader via TR-FRET dual wavelength detection, and the percent of control (POC) calculated using a ratiometric emission factor. 100 POC was determined using no test compounds and 0 POC was determined using no enzyme. The POC values were fit to a 4-parameter logistic curve as a function of the concentration of the compound, and the IC50 value is the point where the curve crosses 50 POC.
Target sequence in this assay (P22607 397-806): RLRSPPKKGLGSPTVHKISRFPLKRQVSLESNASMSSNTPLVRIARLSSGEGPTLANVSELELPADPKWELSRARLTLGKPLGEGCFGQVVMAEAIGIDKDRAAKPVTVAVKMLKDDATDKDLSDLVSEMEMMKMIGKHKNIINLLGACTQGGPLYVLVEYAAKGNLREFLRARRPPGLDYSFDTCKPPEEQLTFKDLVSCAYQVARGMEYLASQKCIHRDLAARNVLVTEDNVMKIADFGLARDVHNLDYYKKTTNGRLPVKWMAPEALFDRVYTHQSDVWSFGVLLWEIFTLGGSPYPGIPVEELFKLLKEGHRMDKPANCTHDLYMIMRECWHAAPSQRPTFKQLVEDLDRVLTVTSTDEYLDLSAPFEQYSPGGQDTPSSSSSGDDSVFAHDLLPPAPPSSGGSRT

FGFR1, sequence (P11362 458-765): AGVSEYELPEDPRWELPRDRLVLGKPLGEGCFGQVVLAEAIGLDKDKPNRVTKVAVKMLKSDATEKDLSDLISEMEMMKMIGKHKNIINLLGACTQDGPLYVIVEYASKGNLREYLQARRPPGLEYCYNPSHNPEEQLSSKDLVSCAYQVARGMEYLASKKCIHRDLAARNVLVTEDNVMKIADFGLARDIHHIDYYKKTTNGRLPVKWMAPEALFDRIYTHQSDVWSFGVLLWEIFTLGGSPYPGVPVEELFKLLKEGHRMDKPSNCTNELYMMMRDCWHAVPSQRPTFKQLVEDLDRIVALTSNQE
phosphorylated FGFR3, sequence (P22607 449-759): as the sequence (P22607 449-759) above

For the molecule `COc1cc(Nc2ccc3ncc(-c4c(C)nn(C5CCN(C(=O)C6(F)CN(C(=O)/C=C/CN(C)C)C6)CC5)c4C)nc3c2)cc(OC)c1` [Example 23, (E)-1-(3-(4-(4-(7-((3,5-dimethoxyphenyl)amino)-quinoxalin-2-yl)-3,5-dimethyl-1H-pyrazol-1-yl)piperidine-1-carbonyl)-3-fluoroazetidin-1-yl)-4-(dimethylamino)but-2-en-1-one], in assay [1], the “FGFR1 Enz kobs” value was found to be 0.00386 min⁻¹. Moreover, the “FGFR3 Enz kobs” value in assay [2] is 0.07588 min⁻¹. For the same molecule, the IC50 in assay [3] was 13 nM; in assay [4], 1940 nM; in assay [5], 972 nM.
On the same counts, the results for `C=CC(=O)N1CC(O)(C(=O)N2CCC(n3cc(-c4cnc5ccc(N(C)c6cc(OC)cc(OC)c6)cc5n4)cn3)CC2)C1` [Example 27, 1-(3-(4-(4-(7-((3,5-dimethoxyphenyl)(methyl)amino)quinoxalin-2-yl)-1H-pyrazol-1-yl)piperidine-1-carbonyl)-3-hydroxyazetidin-1-yl)prop-2-en-1-one] are 0.00264 min⁻¹, 0.00987 min⁻¹, 6 nM, 128 nM and 2 nM.
As to `C=CC(=O)N1CC[C@@H](C(=O)N2CCC(n3cc(-c4cnc5ccc(Nc6cc(OC)cc(OC)c6)cc5n4)cn3)CC2)C1` [Example 2, (R)-1-(3-(4-(4-(7-((3,5-dimethoxyphenyl)amino)-quinoxalin-2-yl)-1H-pyrazol-1-yl)piperidine-1-carbonyl)pyrrolidin-1-yl)-prop-2-en-1-one], the “FGFR1 Enz kobs” value in assay [1] was 0.00038 min⁻¹. For the same molecule, the “FGFR3 Enz kobs” value in assay [2] came to 0.00302 min⁻¹. Besides, the IC50 was 4 nM in assay [3], 852 nM in assay [4] and 10 nM in assay [5].
On the same counts, the results for `C=CC(=O)N1CC(C#N)(C(=O)N2CCC(n3cc(-c4cnc5ccc(Nc6cc(OC)cc(OC)c6)cc5n4)cn3)CC2)C1` [Example 12, 1-acryloyl-3-(4-(4-(7-((3,5-dimethoxyphenyl)-amino)quinoxalin-2-yl)-1H-pyrazol-1-yl)-piperidine-1-carbonyl)-azetidine-3-carbonitrile] are 0.0107 min⁻¹, 0.07246 min⁻¹, 3 nM, 149 nM and 13 nM.
Consider `C=CC(=O)N1CCC(C(=O)N2CCC(n3cc(-c4cnc5ccc(Nc6cc(OC)cc(OC)c6)cc5n4)cn3)CC2)CC1` [Example 3, 1-(4-(4-(4-(7-((3,5-dimethoxyphenyl)amino)-quinoxalin-2-yl)-1H-pyrazol-1-yl)piperidine-1-carbonyl)piperidin-1-yl)prop-2-en-1-one], for which the “FGFR3 Enz kobs” value in assay [2] is 0.00166 min⁻¹. The values for the IC50 in assay [3], in assay [4] and in assay [5] were 5 nM, 350 nM and 10 nM, respectively.
`COc1cc(Nc2ccc3ncc(-c4ccc(N5CCN(C(=O)C6(F)CN(C(=O)/C=C/CN(C)C)C6)CC5)nc4C)nc3c2)cc(OC)c1` [Example 13, (E)-1-(3-(4-(5-(7-((3,5-dimethoxyphenyl)amino)-quinoxalin-2-yl)-6-methylpyridin-2-yl)-piperazine-1-carbonyl)-3-fluoroazetidin-1-yl)-4-(dimethylamino)but-2-en-1-one]: in assay [1], the “FGFR1 Enz kobs” value was determined as 0.00293 min⁻¹. For the same molecule, the “FGFR3 Enz kobs” value in assay [2] was 0.02606 min⁻¹. The IC50 is 335 nM in assay [3] and 1830 nM in assay [5].
The matching figures for `C=CC(=O)N1CC(C(=O)N2CCN(c3cccc(-c4cnc5ccc(Nc6cc(OC)cc(OC)c6)cc5n4)c3)CC2)C1` [Example 25, 1-(3-(4-(3-(7-((3,5-dimethoxyphenyl)amino)-quinoxalin-2-yl)phenyl)-piperazine-1-carbonyl)-azetidin-1-yl)prop-2-en-1-one]: 0.00404 min⁻¹, 0.00369 min⁻¹, 327 nM and 479 nM.

For orientation: IC50 means the point on the concentration scale where inhibition reaches its midpoint.
